Data as given in patent publication US11052127B2, “HSP for use in treatment for imiquimod related side effects” (Alfa Biogene International B.V., priority 2012, dated 2021).
Read-outs that look alike come from different tables or passages of the source.

Tests used:
BALBc mice [1] = assay: Cumulative PASI score (erythema, scales, thickness) of imiquimod-treated mice; assay type: in vivo; conditions: day 7; maximum of 12 points; Group 1, imiquimod only
Method: (§1) The effect of HSP was tested on mice (BALBc mice, male 10-12 weeks old) The mice were divided in 5 groups of eight mice each: […] Group 2: mice were treated for 6 days as group 1. […] Group 3: mice were treated for 6 days as group 2, except for the cream comprising 250 μg/ml HSP (100 μg HSP per dose) Group 4: mice were treated as group 2 except for the carrier cream comprising no Hsp70. (mice were treated for six days, twice a day, once four hours before treatment with imiquimod, once four hours after treatment with imiquimod. Group 5: control group, no cream application. Day 1: initial evaluation for visible signs of psoriasis. […] Animal backs were shaved and photographs were taken. were assessed by the PASI score. On day 7, photographs of all animals (backs) were taken to document progression of the disease. Study groups on ordinal and continuous outcomes were compared using the Kruskal-Wallis test with a […] adjustment for pairwise group comparisons for an overall statistical significance criteria of 0.05 for each outcome.

BALBc mice [2] = assay: Ear pinnae thickness in mice treated with imiquimod cream with or without HSP70 cream; assay type: in vivo; conditions: Group 1, imiquimod 5% cream only, 3.125 mg daily dose
Method: as §1, with “taken. Thickness of both ear pinnae were measured. Cream application was performed creams. All animals” for “taken.”, “and examined once daily for behavioural changes and adverse effects. Ear pinnae measurements are performed daily. Skin changes” for “by the PASI score. On day 7, photographs of all animals (backs) were taken to document progression of the disease.”

patients = conditions: cited from earlier work
BALBc mice [3] = assay: Histology of back skin samples: average epidermal thickness of the treated skin; assay type: in vivo; conditions: day 7, Group 1, imiquimod only
Method: (§2) Group 1: mice were treated for 6 days on shaved back and right ear with one daily application of imiquimod 5% cream to the skin (3.125 mg daily dose)
(§3) Group 2: mice were treated for 6 days as group 1. In addition the part of the skin to which imiquimod was applied was treated twice daily with the cream comprising 50 μg/ml HSP (20 μg HSP per dose). Each day, the cream comprising HSP70 was applied to the skin in a 1 mm layer, 4 hours before application of the imiquimod, and again 4 hours after treatment with imiquimod.
Day 7: The animals were euthanized and skin tissue and blood was processed. Inflammatory markers were measured with Q-PCR (skin samples). Skin samples were histologically examined. […]

BALBc mice [4] = assay: Visual appearance (scaling) of the backs of the mice, FIG. 1; assay type: in vivo; conditions: after 6 days of treatment
Method: as §2, §3
From left to right: Group 2 (20 μg HSP), Group 3 (100 μg HSP), Group 4 (carrier cream only) and Group 1 (imiquimod only)

**Q.** For CC(C)Cn1cnc2c(N)nc3ccccc3c21 [imiquimod], which “cumulative PASI score” value (BALBc mice [1]) is on record?
**A.** 6.5

**Q.** And the ear thickness (BALBc mice [2]; Day 1)?
**A.** 0.21 mm

**Q.** What about the ear thickness (BALBc mice [2]; Day 5) of the same compound?
**A.** 0.28 mm

**Q.** What about the ear thickness (BALBc mice [2]; Day 6) of the same compound?
**A.** 0.37 mm

**Q.** And the ear thickness (BALBc mice [2]; Day 7)?
**A.** 0.40 mm

**Q.** And the “remote site skin reaction: edema” value (patients; in females)?
**A.** 1%

**Q.** And the “remote site skin reaction: erythema” value (patients; in females)?
**A.** 3%

**Q.** And the “remote site skin reaction: ulceration” value (patients; in females)?
**A.** 2%

**Q.** And the “remote site skin reaction: edema” value (patients; in males)?
**A.** 1%

**Q.** What about the “remote site skin reaction: erosion” value (patients; in males) of the same compound?
**A.** 2%

**Q.** And the “remote site skin reaction: erythema” value (patients; in males)?
**A.** 1%

**Q.** What about the “remote site skin reaction: induration” value (patients; in males) of the same compound?
**A.** 1%

**Q.** And the “remote site skin reaction: scaling/excoriation/flaking” value (patients; in males)?
**A.** 1%

**Q.** What about the “remote site reactions: bleeding, burning, itching, pain, dryness, scabbing, crusting, redness, hardening of the skin, tenderness, tinea cruris” value (patients; in vivo) of the same compound?
**A.** more than 1 % of patients

**Q.** What about the “average epidermal thickness of the treated skin” value (BALBc mice [3]) of the same compound?
**A.** 58 μm

**Q.** What about the “scaling of the backs of the mice” value (BALBc mice [4]) of the same compound?
**A.** severely scaled
